Measured values taken from ChEMBL document CHEMBL1201862, “PubChem BioAssay data set” (2004).
Activity calls are given as the source filed them.

Tests used:
Caspase-3 = molecular target: T1, Caspase-3 (Homo sapiens, UniProt P42574); assay type: functional;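 note: Dose-response selectivity test against caspase-3 for candidate inhibitors of sentrin-specific proteases (SENPs)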
T1 sequence (P42574 whole entry): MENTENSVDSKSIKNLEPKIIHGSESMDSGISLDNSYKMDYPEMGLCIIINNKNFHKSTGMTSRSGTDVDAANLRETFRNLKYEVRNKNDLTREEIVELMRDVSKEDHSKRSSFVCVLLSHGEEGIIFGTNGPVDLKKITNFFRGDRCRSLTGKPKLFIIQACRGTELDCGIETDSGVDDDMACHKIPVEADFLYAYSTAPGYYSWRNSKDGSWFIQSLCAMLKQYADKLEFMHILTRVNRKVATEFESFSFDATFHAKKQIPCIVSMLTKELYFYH

[1] = molecular target: T2, Sentrin-specific protease 6 (Homo sapiens, UniProt Q9GZR1); assay type: functional;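 note: Luminescence-based dose-response confirmatory assay of SENP6 inhibition, following up an ultra-high-throughput screen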
T2 sequence (Q9GZR1 whole entry): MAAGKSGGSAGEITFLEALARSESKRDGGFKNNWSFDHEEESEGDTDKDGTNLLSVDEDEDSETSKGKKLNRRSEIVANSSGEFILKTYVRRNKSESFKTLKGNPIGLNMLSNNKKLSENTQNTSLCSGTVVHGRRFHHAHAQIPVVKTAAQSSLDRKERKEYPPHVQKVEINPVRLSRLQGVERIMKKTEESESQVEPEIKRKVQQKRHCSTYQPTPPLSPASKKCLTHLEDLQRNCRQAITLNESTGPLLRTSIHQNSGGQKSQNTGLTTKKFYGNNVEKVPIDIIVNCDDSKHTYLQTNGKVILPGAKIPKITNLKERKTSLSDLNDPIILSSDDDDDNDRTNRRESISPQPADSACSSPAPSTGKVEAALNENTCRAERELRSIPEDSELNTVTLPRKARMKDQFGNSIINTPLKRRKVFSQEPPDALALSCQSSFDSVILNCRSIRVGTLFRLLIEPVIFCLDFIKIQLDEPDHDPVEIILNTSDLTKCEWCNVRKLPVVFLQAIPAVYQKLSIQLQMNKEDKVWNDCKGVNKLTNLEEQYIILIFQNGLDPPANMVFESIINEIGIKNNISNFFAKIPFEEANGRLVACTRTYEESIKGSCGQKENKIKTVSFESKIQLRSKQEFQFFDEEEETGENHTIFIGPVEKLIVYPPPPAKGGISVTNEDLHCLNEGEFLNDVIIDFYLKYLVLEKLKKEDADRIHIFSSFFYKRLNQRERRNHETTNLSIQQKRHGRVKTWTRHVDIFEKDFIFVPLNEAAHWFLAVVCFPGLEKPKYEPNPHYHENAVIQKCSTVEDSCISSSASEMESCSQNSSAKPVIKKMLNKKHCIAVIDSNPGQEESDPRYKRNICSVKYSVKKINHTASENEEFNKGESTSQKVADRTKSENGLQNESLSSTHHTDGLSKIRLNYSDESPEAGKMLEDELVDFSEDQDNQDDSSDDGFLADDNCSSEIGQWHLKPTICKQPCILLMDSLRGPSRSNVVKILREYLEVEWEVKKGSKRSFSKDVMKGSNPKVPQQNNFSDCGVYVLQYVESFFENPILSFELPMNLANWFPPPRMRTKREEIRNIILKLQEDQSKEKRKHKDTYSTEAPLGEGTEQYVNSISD

[2] = molecular target: T3, Sentrin-specific protease 7 (Homo sapiens, UniProt Q9BQF6); assay type: functional;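 note: Luminescence-based dose-response confirmation of ultra-high-throughput screening hits, measuring inhibition of SENP7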
T3 sequence (Q9BQF6 whole entry): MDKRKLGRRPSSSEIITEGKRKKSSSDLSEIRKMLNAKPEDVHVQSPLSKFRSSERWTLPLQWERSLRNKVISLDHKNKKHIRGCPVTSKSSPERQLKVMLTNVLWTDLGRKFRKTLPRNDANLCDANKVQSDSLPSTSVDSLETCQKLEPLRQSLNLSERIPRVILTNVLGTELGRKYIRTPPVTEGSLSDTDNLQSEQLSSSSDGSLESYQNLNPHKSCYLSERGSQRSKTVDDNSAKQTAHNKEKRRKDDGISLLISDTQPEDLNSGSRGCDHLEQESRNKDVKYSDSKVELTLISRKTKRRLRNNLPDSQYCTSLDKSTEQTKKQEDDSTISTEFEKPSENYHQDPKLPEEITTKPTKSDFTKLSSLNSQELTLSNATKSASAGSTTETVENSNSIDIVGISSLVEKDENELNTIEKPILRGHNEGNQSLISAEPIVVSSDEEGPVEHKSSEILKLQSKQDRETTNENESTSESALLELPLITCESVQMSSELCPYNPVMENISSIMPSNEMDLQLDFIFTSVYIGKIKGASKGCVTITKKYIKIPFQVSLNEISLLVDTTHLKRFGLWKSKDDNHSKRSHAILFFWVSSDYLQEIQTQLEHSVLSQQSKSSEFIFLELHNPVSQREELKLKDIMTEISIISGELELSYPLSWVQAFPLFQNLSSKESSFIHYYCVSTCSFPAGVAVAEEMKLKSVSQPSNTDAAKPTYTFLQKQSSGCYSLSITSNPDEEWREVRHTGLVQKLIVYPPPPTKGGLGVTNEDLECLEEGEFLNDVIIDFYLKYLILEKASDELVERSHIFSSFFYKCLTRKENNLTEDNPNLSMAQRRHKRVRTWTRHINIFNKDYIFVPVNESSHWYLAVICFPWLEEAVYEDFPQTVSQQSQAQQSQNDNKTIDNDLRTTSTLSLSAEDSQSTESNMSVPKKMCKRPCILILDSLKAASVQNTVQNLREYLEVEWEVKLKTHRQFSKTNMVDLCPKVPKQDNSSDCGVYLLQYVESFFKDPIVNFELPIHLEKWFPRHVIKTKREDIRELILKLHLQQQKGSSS

[3] = molecular target: T4, Sentrin-specific protease 8 (Homo sapiens, UniProt Q96LD8); assay type: functional;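 note: luminescence read-out of SENP8 inhibition, dose-response confirmation following an ultra-high-throughput screen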
T4 sequence (Q96LD8 whole entry): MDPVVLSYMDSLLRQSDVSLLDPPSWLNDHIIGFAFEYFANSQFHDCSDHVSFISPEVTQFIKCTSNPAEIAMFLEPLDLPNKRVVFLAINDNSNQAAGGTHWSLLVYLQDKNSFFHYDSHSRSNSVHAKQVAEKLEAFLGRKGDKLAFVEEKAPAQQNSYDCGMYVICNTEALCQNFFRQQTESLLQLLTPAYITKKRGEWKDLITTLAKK

[4] = luciferase reporter signal reduction – luminescence, H4-C neuroglioblastoma cells, dose response (AID 2458); assay type: functional, cell-based;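 note: H4 neuroglioblastoma cells stably carrying a luciferase reporter gene fusion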
[5] = NIH-3T3 fibroblast cytotoxicity, dose response, cytotoxicity control, cell-based, fluorescence, Alamar Blue, secondary assay (AID 2327); assay type: functional;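 note: NIH-3T3 mouse fibroblasts cultured with fluconazole at 8 µg/mL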
[6] = molecular target: ATP-dependent molecular chaperone HSP82 (Candida albicans (strain WO-1) (Yeast), UniProt C4YTQ8); assay: loss of DOC-induced GRE-beta-galactosidase reporter signal, dose response, Hsp90 inhibitor project, S. cerevisiae, luminescence (AID 2400); assay type: functional, cell-based;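 note: beta-galactosidase luminescence from glucocorticoid response element reporter as proxy for Hsp90 function; inhibitor potency where signal loss means Hsp90 inhibition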
Sequence of ATP-dependent molecular chaperone HSP82 (C4YTQ8 whole entry): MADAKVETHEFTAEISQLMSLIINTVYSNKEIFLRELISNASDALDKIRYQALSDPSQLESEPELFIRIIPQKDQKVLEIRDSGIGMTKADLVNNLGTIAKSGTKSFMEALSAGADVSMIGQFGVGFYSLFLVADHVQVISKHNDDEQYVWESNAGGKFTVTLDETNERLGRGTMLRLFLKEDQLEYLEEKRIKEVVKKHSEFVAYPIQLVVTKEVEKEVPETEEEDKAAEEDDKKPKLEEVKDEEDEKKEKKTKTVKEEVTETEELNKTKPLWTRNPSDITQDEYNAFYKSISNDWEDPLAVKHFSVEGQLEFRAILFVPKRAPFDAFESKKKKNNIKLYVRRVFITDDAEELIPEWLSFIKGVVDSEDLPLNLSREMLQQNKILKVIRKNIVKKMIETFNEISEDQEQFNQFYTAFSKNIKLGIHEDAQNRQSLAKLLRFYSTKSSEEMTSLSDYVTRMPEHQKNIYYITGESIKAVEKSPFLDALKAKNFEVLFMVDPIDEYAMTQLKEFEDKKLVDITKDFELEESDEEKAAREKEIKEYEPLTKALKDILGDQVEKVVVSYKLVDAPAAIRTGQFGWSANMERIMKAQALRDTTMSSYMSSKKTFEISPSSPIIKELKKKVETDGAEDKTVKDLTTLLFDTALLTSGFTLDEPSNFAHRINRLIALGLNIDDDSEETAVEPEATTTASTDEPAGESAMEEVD

[7] = molecular target: Heat shock protein HSP 90-alpha (Homo sapiens, UniProt P07900); assay type: functional, organism-based
cells = assay type: functional, cell-based
Streptococcus = assay: Group A Streptococcus viability loss, dose response, counter-screen for streptokinase expression inhibitor project, luminescence, BacTiterGlo (AID 1915); assay type: functional, organism-based;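 note: potency for reduction of bacterial viability or growth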
[8] = C. albicans growth with fluconazole, confirmation, fluorescence, retest (AID 2467); assay type: functional, cell-based
BJ = assay: cytotoxicity toward Ras-transformed BJeLR fibroblasts, dose response, cell-based, alamar blue fluorescence, cherrypicked samples (AID 2631); assay type: functional; conditions: Homo sapiens;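 note: confirmatory dose-response assay in RAS-dependent BJ fibroblasts engineered with TERT, LT and ST, with cytotoxicity read by fluorescence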
[9] = tested on: Streptococcus sp. 'group A'; assay: growth inhibition of control SK(-) GAS strain, dose response, counter-screen for streptokinase expression inhibitor project, luminescence, kanamycin, BacTiterGlo, confirmation (AID 1900); assay type: functional, organism-based
[10] = Luminescence Cell-Based Dose Response HTS to Identify Inhibitors of 5'UTR Stem-Loop Driven Prion Protein mRNA Translation in H4 Neuroglioblastoma Cells. [Related pubchem assays: 1827 (Project Summary), 1813 (Primary HTS)]; assay type: functional
[11] = inhibitors of firefly luciferase expression or activity, dose response, H4 neuroglioma cells, luminescence (AID 1990); assay type: functional, cell-based
Nonstructural protein 1 = Nonstructural protein 1 (Influenza A virus, UniProt Q194T2); assay type: functional, Influenza A virus (A/California/07/2009(H1N1))
Sequence of Nonstructural protein 1 (Q194T2 whole entry): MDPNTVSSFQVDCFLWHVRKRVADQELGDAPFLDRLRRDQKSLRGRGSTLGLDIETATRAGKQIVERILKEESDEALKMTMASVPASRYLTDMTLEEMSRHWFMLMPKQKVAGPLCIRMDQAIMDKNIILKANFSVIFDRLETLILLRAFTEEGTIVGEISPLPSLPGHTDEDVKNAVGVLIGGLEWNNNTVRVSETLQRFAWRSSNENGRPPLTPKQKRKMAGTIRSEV

[12] = inhibitors of SNCA 5'UTR-driven reporter translation, confirmation, H4 neuroglioma cells, luminescence (AID 1988); assay type: functional, cell-based
HEK293 = assay: inhibitors of LMP1-driven NF-kB reporter, dose response, cell-based, HEK293, luciferase, cherry-pick (AID 588343); assay type: functional; conditions: Homo sapiens
[13] = inhibitors of SNCA 5'UTR-driven translation, confirmation, luminescence, H4 neuroglioblastoma cells, dose confirmation (AID 2454); assay type: functional, cell-based;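 note: H4 neuroglioblastoma cells carrying an alpha-synuclein 5'UTR luciferase reporter; potency for inhibition of the luciferase signal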
[14] = molecular target: T5, Serine/threonine-protein phosphatase (Candida dubliniensis (strain CD36 / CBS 7987 / NCPF 3949 / NRRLY-17841) (Yeast), UniProt B9W6M3); assay: calcineurin pathway inhibitors in yeast reporter, dose response, S. cerevisiae, CDRE-lacZ, luminescence, secondary (AID 2388); assay type: functional, cell-based;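 note: yeast reporter cells carrying a calcineurin-responsive lacZ construct stimulated with calcium chloride; luminescent beta-galactosidase reporter signal in whole cells rather than isolated phosphatase activity; potency for inhibition where a drop in reporter signal means calcineurin blockade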
T5 sequence (B9W6M3 whole entry): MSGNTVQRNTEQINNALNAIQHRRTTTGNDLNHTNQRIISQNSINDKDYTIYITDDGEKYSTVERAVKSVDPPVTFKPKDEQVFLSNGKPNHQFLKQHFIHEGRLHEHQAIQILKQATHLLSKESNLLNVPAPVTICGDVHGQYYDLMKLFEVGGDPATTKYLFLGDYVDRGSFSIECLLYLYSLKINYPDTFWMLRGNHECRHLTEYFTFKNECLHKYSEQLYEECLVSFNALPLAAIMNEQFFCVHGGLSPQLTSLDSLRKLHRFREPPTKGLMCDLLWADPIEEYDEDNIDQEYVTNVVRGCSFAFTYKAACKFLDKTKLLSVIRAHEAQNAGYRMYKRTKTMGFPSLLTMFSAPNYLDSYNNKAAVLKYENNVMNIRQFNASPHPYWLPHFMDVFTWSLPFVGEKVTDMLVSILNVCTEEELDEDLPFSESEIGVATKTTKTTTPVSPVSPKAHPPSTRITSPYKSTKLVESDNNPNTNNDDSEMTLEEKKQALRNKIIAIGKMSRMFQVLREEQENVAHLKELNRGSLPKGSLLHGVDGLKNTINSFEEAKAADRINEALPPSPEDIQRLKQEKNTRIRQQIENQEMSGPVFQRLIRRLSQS

Streptokinase A = molecular target: T6, Streptokinase A (Streptococcus pyogenes serotype M1, UniProt P10520); assay: S. pyogenes streptokinase expression inhibitors, potency, dose response, plasminogen activation absorbance, OD405 (AID 1914); assay type: functional, Streptococcus pyogenes M1 GAS;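 note: secreted streptokinase activity via plasminogen activation per viability signal from cell pellet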
T6 sequence (P10520 whole entry): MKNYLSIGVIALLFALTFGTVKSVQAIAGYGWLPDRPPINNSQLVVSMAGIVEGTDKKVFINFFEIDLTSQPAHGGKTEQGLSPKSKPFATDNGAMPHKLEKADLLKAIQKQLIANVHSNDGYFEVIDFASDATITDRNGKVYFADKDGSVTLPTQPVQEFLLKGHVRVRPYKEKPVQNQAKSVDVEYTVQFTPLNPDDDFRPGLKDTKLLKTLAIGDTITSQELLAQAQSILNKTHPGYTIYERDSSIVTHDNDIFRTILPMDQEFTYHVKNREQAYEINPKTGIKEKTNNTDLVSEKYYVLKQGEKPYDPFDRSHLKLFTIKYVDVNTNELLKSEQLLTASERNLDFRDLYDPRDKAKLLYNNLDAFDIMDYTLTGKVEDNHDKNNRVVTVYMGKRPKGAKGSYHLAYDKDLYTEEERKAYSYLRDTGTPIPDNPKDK

CC1CCCN(C(=O)c2ccc(-c3ccccc3Cl)o2)C1 (stereo unspecified)
IC50 (Caspase-3): 34.7 µM (active) | IC50 [1]: 27.6 µM (active) | IC50 [2]: 15.2 µM (active) | IC50 [3]: 31.4 µM (active)

O=C(N/N=C/c1cc2c3c(c1O)CCCN3CCC2)c1ccccc1O
EC50 [4]: 0.558 µM (active) | EC50 [5]: 23.7 µM (active) | EC50 [6]: 18.1 µM (active) | AC50 [7]: 2.14 µM (active) | EC50 (cells): 0.687 µM (active) | EC50 (Streptococcus): 12 µM (active) | EC50 [8]: 0.429 µM (active) | EC50 (BJ): 22.4 µM (active) | EC50 [9]: 8.16 µM (active) | EC50 [10]: 0.102 µM (active) | EC50 [11]: 2.89 µM (active) | IC50 (Nonstructural protein 1): 3.22 µM (active) | EC50 [12]: < 0.1 µM (active) | AC50 (HEK293): 5.6 µM (active) | EC50 [13]: 0.798 µM (active) | EC50 [14]: 18.2 µM (active) | EC50 (Streptokinase A): > 150 µM (not active)

CC(C)CC(=NNC(=O)c1ccncc1)c1cc(Cl)ccc1O
AC50 (HEK293): 4.28 µM (active)

COn1c(-c2ccccc2)nc2ccc(Cl)cc21
IC50 (Caspase-3): 20.1 µM (active) | IC50 [1]: 30 µM (active) | IC50 [2]: 13.1 µM (active) | IC50 [3]: 34.9 µM (active)

CCOC(=O)/C(=N\Nc1ncnc2ccccc12)c1ccc(OC)cc1
IC50 (Caspase-3): 16.9 µM (active) | IC50 [1]: 5.23 µM (active) | IC50 [2]: 3.39 µM (active) | IC50 [3]: 14.2 µM (active)

COc1ccc(-c2csc3ncnc(NCCO)c23)cc1
AC50 (HEK293): 13.9 µM (active)
